Test results published in patent publication US20040138064A1, “Adjuvant for water soluble herbicides” (priority 2002, published 2004).

Columns and labels:
[1] = tested on: soybeans; test: Greenhouse spray of glyphosate (0.75 lb AI per 10 gallons per acre) with or without sulfate adjuvant on soybean; type: in vivo, Glycine max; settings: for height reduction of soybean, statistical comparison with the no adjuvant case / weight reduction of soybean, statistical comparison with the no adjuvant case: 0 ppm water hardness and 342 ppm water hardness; for Plant Height Soybean % Control 15 DAT / Plant Weight Soybean % Control 15 DAT: no sulfate adjuvant
Source text: (§1) The formulations shown in Table 3 and Table 4 are either glyphosate and ammonium sulfate (AMS) or glyphosate and isopropylammonium sulfate (MIPAS). In Table 3 and Table 4, 0 ppm hardness refers to the absence of minerals such as calcium ions and 342 ppm hardness refers to the amount of calcium ions present. The moles of sulfate indicate the amount of isopropylammonium sulfate or ammonium sulfate per liter. The aqueous solution was applied to the plots at a level of 10 gallons per acre. The two tested plants were soybeans (Glycine max) and grain sorghum (Milo), (Sorghum bicolar).
(§2) The herbicidal solutions were applied in a greenhouse using a Spray chamber with an FF nozzle having a nozzle size 8001EVS. The spray apparatus was operated at 38 psi and the height of the nozzle was 9.75 inches. The watering frequency was every 6 hours for 5 minutes. The daytime temperature was 85° F. and the nighttime temperature was 70° F. with a 16 hour day. The soybean was 4-4.5 inches with one trifoliate leaf present when the herbicidal solution was applied. The grain sorghum was 4-8 inches with 3-4 leaves present when the herbicidal solution was applied.
(§3) The Figures show values of moles of ammonium sulfate or isopropylammonium sulfate per liter. The actual solution used on the grain sorghum contained 0.13 pounds of glyphosate active ingredient per 10 gallons of water per acre. The actual solution used on the soybean contained 0.75 pounds glyphosate active ingredient per 10 gallons of water per acre.
(§4) FIGS. 5 and 9 show the height of sorghum and soybean, respectively, when distilled water was used, as a percent reduction of the height of the control after 15 days. FIGS. 6 and 10 show the height of sorghum and soybean, respectively, when hard water was used, as a percent reduction of the height of the control after 15 days. FIGS. 7 and 11 show the fresh weight of sorghum and soybean, respectively, when distilled water was used, as a percent reduction of the weight of the control after 15 days. FIGS. 8 and 12 show the fresh weight of sorghum and soybean, respectively, when hard water was used, as a percent reduction of the weight of the control after 15 days. The plants were harvested and weighed to determine the fresh weight.

[2] = tested on: grain sorghum (Milo); test: Greenhouse spray of glyphosate (0.13 lb AI per 10 gallons per acre) with or without sulfate adjuvant on grain sorghum; type: in vivo, Sorghum bicolar; settings: for Plant Height Sorghum % Control 15 DAT / Plant Weight Sorghum % Control 15 DAT: no sulfate adjuvant
Source text: as §1, §2, §3, §4
(§5) Bartlett's test (commonly used in the agricultural business) was used to statistically analyze the results.

[3] = tested on: Velvetleaf; test: Cabinet spray of glyphosate (about 0.63 lb AI per 10 gallons per acre) with or without sulfate adjuvant on velvetleaf; type: in vivo, ipomoea hederacea (L.) jacq. Var. integriuscula gray; settings: for Velvet Leaf % Control 7 DAT / Velvet Leaf % Control 14 DAT / Velvet Leaf % Control 21 DAT / Velvet Leaf Fresh Weight 21 DAT: no sulfate adjuvant
Source text: as §1, with “1” for “3”, “2” for “4”, “2,” for “4,”, “1000” for “342”, “Morningglory Entireleaf ([…])” for “soybeans (Glycine max)”, “Velvetleaf ([…]). The term YBI in the Figures indicates the adjuvant was isopropylammonium sulfate.” for “grain sorghum (Milo), (Sorghum bicolar).”
(§6) The herbicidal solutions were applied in a cabinet using a Lodrift nozzle having a nozzle size 110015. The spray apparatus was operated at 40 psi using air as the propellant and water as a carrier. The boom height was 13.5 inches. The ground speed was 2.6 miles per hour. The morningglory was at the three-leaf stage when the herbicidal solution was applied. The velvetleaf was 4-6 inches in height when the herbicidal solution was applied. The normalized spray volume was 10 gallons per acre.
(§7) The Figures show values of pounds of ammonium sulfate or isopropylammonium sulfate per hundred gallons. The actual solutions used were nominally ten gallons of the sulfate in water, e.g. one-tenth of the sulfate per hundred gallons of carrier, with twenty fluid ounces of glyphosate. Twenty fluid ounces of glyphosate contains about 0.63 pounds of glyphosate active ingredient (AI) reported as the isopropylammonium. The glyphosate active ingredient (AI) as the isopropylammonium salt is related to the glyphosate acid equivalents (AE) by the formula: (0.7142)(AI)=AE.
(§8) FIGS. 1 and 3 show the fresh weight of morningglory and velvetleaf, respectively. The fresh weight was determined by cutting the stem of the plant flush with the ground and weighing the plant. The weight is reported as grams per pot since a single plant was grown in each pot. FIGS. 2 and 4 show the percent control at 7, 14 and 21 days for morningglory and velvetleaf, respectively.
as §5

[4] = tested on: Morningglory Entireleaf; test: Cabinet spray of glyphosate (about 0.63 lb AI per 10 gallons per acre) with or without sulfate adjuvant on morningglory; type: in vivo, abutilon theophrasti medik; settings: for Morning Glory % Control 7 DAT / Morning Glory % Control 14 DAT / Morning Glory % Control 21 DAT / Morning Glory Fresh Weight 21 DAT: no sulfate adjuvant
Source text: as §1, with “1” for “3”, “2” for “4”, “2,” for “4,”, “1000” for “342”, “Morningglory Entireleaf ([…])” for “soybeans (Glycine max)”, “Velvetleaf ([…]). The term YBI in the Figures indicates the adjuvant was isopropylammonium sulfate.” for “grain sorghum (Milo), (Sorghum bicolar).”
as §6, §7, §8

[5] = 342 ppm of water hardness, three highest concentrations of MIPAS, two higher concentrations of AMS
[6] = water hardness 0 ppm, AMS at the two highest concentrations, all MIPAS concentrations
[7] = water hardness 1000 ppm, higher concentrations of AMS, all MIPAS
[8] = water hardness 1000 ppm, two higher concentrations of AMS, all the MIPAS treatments

N.N.O=S(=O)(O)O [AMS, ammonium sulfate]
height reduction of soybean, statistical comparison with the no adjuvant case [1]: not significantly different from the no adjuvant case | weight reduction of soybean, statistical comparison with the no adjuvant case [1]: not significantly different from the no adjuvant case | fresh weight of sorghum, statistical comparison with the no adjuvant case (Bartlett's test) ([2]; 0 ppm water hardness): not significantly different from the no adjuvant case | height reduction of sorghum, statistical comparison with the no adjuvant case (Bartlett's test) ([2]; 0 ppm water hardness): not significantly different from the no adjuvant case | fresh weight of sorghum, statistical comparison with the no adjuvant case (Bartlett's test) [2, 5]: significantly different than the no adjuvant case | fresh weight of velvetleaf, statistical comparison with no adjuvant (Bartlett's test) ([3]; water hardness 0 ppm): no statistical difference | fresh weight of velvetleaf, statistical comparison with no adjuvant (Bartlett's test) ([3]; water hardness 1000 ppm, MIPAS at the two higher concentrations): no statistical difference | height reduction of morningglory, statistical comparison with the no adjuvant case (Bartlett's test) [4, 6]: statistically different from the no adjuvant case | fresh weight of morningglory, statistical comparison with the no adjuvant case (Bartlett's test) [4, 7]: statistical difference | height reduction of morningglory, statistical comparison with the no adjuvant case (Bartlett's test) [4, 8]: statistically different from the no adjuvant case

O=C(O)CNCP(=O)(O)O [Glyphosate, N-phosphonomethylglycine]
Plant Height Soybean % Control 15 DAT ([1]; water hardness 0 ppm): 47.55% | Plant Weight Soybean % Control 15 DAT ([1]; water hardness 0 ppm): 75.60% | Plant Height Soybean % Control 15 DAT ([1]; water hardness 342 ppm): 47.77% | Plant Weight Soybean % Control 15 DAT ([1]; water hardness 342 ppm): 59.20% | Plant Height Sorghum % Control 15 DAT ([2]; water hardness 0 ppm): 41.04% | Plant Weight Sorghum % Control 15 DAT ([2]; water hardness 0 ppm): 59.86% | Plant Height Sorghum % Control 15 DAT ([2]; water hardness 342 ppm): 14.55% | Plant Weight Sorghum % Control 15 DAT ([2]; water hardness 342 ppm): 40.97% | Velvet Leaf % Control 7 DAT ([3]; water hardness 0 ppm): 52% | Velvet Leaf % Control 14 DAT ([3]; water hardness 0 ppm): 84% | Velvet Leaf % Control 21 DAT ([3]; water hardness 0 ppm): 88% | Velvet Leaf Fresh Weight 21 DAT ([3]; water hardness 0 ppm): 1.1 grams per pot | Velvet Leaf % Control 7 DAT ([3]; water hardness 1000 ppm): 48% | Velvet Leaf % Control 14 DAT ([3]; water hardness 1000 ppm): 56% | Velvet Leaf % Control 21 DAT ([3]; water hardness 1000 ppm): 52% | Velvet Leaf Fresh Weight 21 DAT ([3]; water hardness 1000 ppm): 1.8 grams per pot | Morning Glory % Control 7 DAT ([4]; water hardness 0 ppm): 56% | Morning Glory % Control 14 DAT ([4]; water hardness 0 ppm): 56% | Morning Glory % Control 21 DAT ([4]; water hardness 0 ppm): 50% | Morning Glory Fresh Weight 21 DAT ([4]; water hardness 0 ppm): 1.4 grams per pot | Morning Glory % Control 7 DAT ([4]; water hardness 1000 ppm): 51% | Morning Glory % Control 14 DAT ([4]; water hardness 1000 ppm): 48% | Morning Glory % Control 21 DAT ([4]; water hardness 1000 ppm): 46% | Morning Glory Fresh Weight 21 DAT ([4]; water hardness 1000 ppm): 1.9 grams per pot

CC(C)N.CC(C)N.O=S(=O)(O)O [MIPAS, isopropylammonium sulfate]
height reduction of soybean, statistical comparison with the no adjuvant case [1]: not significantly different from the no adjuvant case | weight reduction of soybean, statistical comparison with the no adjuvant case [1]: not significantly different from the no adjuvant case | fresh weight of sorghum, statistical comparison with the no adjuvant case (Bartlett's test) ([2]; 0 ppm water hardness): not significantly different from the no adjuvant case | height reduction of sorghum, statistical comparison with the no adjuvant case (Bartlett's test) ([2]; 0 ppm water hardness): not significantly different from the no adjuvant case | fresh weight of sorghum, statistical comparison of MIPAS with AMS (Bartlett's test) ([2]; 342 ppm of water hardness): not significantly different from each other | height reduction of sorghum, statistical comparison of MIPAS with AMS (Bartlett's test) ([2]; 342 ppm of water hardness): not significantly different than the AMS results | height reduction of sorghum, statistical comparison with the no adjuvant case (Bartlett's test) ([2]; 342 ppm of water hardness): significantly different than the no adjuvant case | fresh weight of sorghum, statistical comparison with the no adjuvant case (Bartlett's test) [2, 5]: significantly different than the no adjuvant case | fresh weight of velvetleaf, statistical comparison with no adjuvant (Bartlett's test) ([3]; water hardness 0 ppm): no statistical difference | height reduction of velvetleaf, statistical comparison with the no adjuvant case (Bartlett's test) ([3]; water hardness 0 ppm and 1000 ppm): statistically different from the no adjuvant case | height reduction of velvetleaf, statistical comparison of MIPAS with AMS (Bartlett's test) ([3]; water hardness 0 ppm, high MIPAS concentrations): statistically different from the AMS results | fresh weight of velvetleaf, statistical comparison of MIPAS with AMS (Bartlett's test) ([3]; water hardness 1000 ppm): no statistically significant difference | height reduction of velvetleaf, statistical comparison of MIPAS with AMS (Bartlett's test) ([3]; water hardness 1000 ppm): not statistically significant | fresh weight of morningglory, statistical comparison of MIPAS with AMS (Bartlett's test) ([4]; water hardness 0 ppm): no statistically significant difference | fresh weight of morningglory, statistical comparison with the no adjuvant case (Bartlett's test) ([4]; water hardness 0 ppm): statistical difference | height reduction of morningglory, statistical comparison of MIPAS with AMS (Bartlett's test) ([4]; water hardness 0 ppm): no statistically significant difference | height reduction of morningglory, statistical comparison with the no adjuvant case (Bartlett's test) [4, 6]: statistically different from the no adjuvant case | fresh weight of morningglory, statistical comparison of MIPAS with AMS (Bartlett's test) ([4]; water hardness 1000 ppm): no statistically significant difference | height reduction of morningglory, statistical comparison of MIPAS with AMS (Bartlett's test) ([4]; water hardness 1000 ppm): not statistically significant | fresh weight of morningglory, statistical comparison with the no adjuvant case (Bartlett's test) [4, 7]: statistically different from the no adjuvant case | height reduction of morningglory, statistical comparison with the no adjuvant case (Bartlett's test) [4, 8]: statistically different from the no adjuvant case
